Data on five compounds can be found in ChEMBL document CHEMBL5385882, “Rational design and appraisal of selective Cdc2-Like kinase 1 (Clk1) inhibitors as novel autophagy inducers for the treatment of acute liver injury (ALI)” (Eur J Med Chem, 2023).

Activity calls are given as the source filed them. The rule behind the calls is not given here.

As a reminder, the IC50 is the midpoint of a concentration-inhibition curve. Broadly, the half-life is the time in which the quantity being followed falls by half. For orientation: Cmax means the highest concentration seen after dosing. The term AUC(0-t) denotes exposure summed from dosing to a finite time, without extrapolation to infinity. Lower therefore signals low exposure. Broadly, the clearance is a measure of how efficiently the substance is removed, as volume per time. Read a high clearance as efficient removal. A word on the CL/F: it is the apparent clearance, not corrected for the fraction that reaches the circulation. As a reminder, the bioavailability is dose-corrected exposure relative to a reference, in per cent. Lower therefore signals little systemic uptake.

The species entered for one data set is Homo sapiens. The data set is described as follows: Selectivity index, ratio of IC50 for inhibition of human full length recombinant DYRK1A to IC50 for inhibition of human 130-end recombinant CLK1.
Data set [1] deals with Dual specificity protein kinase CLK1 (Mus musculus) (UniProt P22518). The data set is described as follows: Inhibition of Clk1 in mouse BNL CL.2 cells assessed as redistribution of serine/arginine (SR) proteins from nucleoplasmic (active form) to nuclear speckles (storage form) at 10 uM incubated for 24 hrs by immunofluorescence assay. Type of data set: cell-based.
For data set [2], the target named is T1, Dual specificity protein kinase CLK1 (Homo sapiens, UniProt P49759). The data set is described as follows: Inhibition of human 130-end recombinant CLK1 assessed as remaining activity using ERMRPRKRQGSVR as substrate by [gamma-32P]ATP binding based scintillation counting based analysis.
Target sequence in this assay (P49759 whole entry): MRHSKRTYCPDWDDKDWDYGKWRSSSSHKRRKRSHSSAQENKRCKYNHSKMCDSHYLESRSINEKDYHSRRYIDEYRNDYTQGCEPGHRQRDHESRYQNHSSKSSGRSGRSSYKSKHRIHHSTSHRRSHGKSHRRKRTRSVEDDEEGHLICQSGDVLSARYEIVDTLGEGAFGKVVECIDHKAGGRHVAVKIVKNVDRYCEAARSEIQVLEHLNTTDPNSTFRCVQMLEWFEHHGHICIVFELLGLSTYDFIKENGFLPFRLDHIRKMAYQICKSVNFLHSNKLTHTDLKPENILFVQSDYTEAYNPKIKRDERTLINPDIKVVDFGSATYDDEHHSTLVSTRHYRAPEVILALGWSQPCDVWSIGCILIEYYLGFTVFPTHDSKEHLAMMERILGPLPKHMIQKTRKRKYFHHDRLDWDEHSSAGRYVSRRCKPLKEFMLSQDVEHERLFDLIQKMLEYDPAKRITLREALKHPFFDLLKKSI
Data set [3] deals with T2, Dual specificity tyrosine-phosphorylation-regulated kinase 1A (Homo sapiens, UniProt Q13627). The data set is described as follows: Inhibition of human full length recombinant DYRK1A assessed as remaining activity using RRRFRPASPLRGPP as substrate by [gamma-32P]ATP binding based scintillation counting based analysis.
Data set [4] is described as follows: Metabolic stability in human liver microsomes assessed as half life at 10 uM incubated for 5 mins in the presence of NADPH-generating system by LC-MS/MS analysis. The class given is ADME, Microsome. In general terms: Liver microsomes are a subcellular fraction often used to study metabolism.
Data set [5] can be described thus: Metabolic stability in human liver microsomes assessed as clearance at 10 uM incubated for 5 mins in the presence of NADPH-generating system by LC-MS/MS analysis. The class given is ADME, Microsome.
The target in data set [6] is T2, Dual specificity tyrosine-phosphorylation-regulated kinase 1A. Kind of data set: Inhibition of human full length recombinant DYRK1A assessed as remaining activity using RRRFRPASPLRGPP as substrate at 100 nM by [gamma-32P]ATP binding based scintillation counting based analysis relative to control.
The target of data set [7] is T1, Dual specificity protein kinase CLK1. Kind of data set: Inhibition of human 130-end recombinant CLK1 assessed as remaining activity using ERMRPRKRQGSVR as substrate at 100 nM by [gamma-32P]ATP binding based scintillation counting based analysis relative to control.
Target sequence in this assay (P49759 whole entry, looked up): as the sequence (P49759 whole entry) above
The nature of data set [8]: Cmax in Balb/c mouse at 10 mg/kg, po measured upto24 hrs by LC/MS/MS analysis. As to conditions: in vivo. Type of data set: ADME, organism-based. Set-up: dose 10 mg/kg, time 24 hrs, route po.
The nature of data set [9]: Cmax in Balb/c mouse at 10 mg/kg, iv measured upto24 hrs by LC/MS/MS analysis. Type of data set: ADME, organism-based. Set-up: time 24 hrs, dose 10 mg/kg, route iv. As to conditions: in vivo.
Data set [10] is described as follows: Cmax in Balb/c mouse at 10 mg/kg, ip measured upto24 hrs by LC/MS/MS analysis. The class given is ADME, organism-based. Also on record: dose 10 mg/kg, time 24 hrs, route ip. Particulars: in vivo.
The nature of data set [11]: AUC (0 to t) in Balb/c mouse at 10 mg/kg, iv measured upto24 hrs by LC/MS/MS analysis. Type of data set: ADME, organism-based. Set-up: time 24 hrs, dose 10 mg/kg, route iv. As to conditions: in vivo.
In data set [12] the test system is HeLa. Kind of data set: Induction of autophagy in human HeLa cells infected with RFP-GFP-LC3 assessed as increased the number of yellow LC3 puncta at 10 uM after 24 hrs by confocal microscopy. The class given is functional, cell-based.
In data set [13] the test system is HeLa. Kind of data set: Induction of autophagy in human HeLa cells assessed as increase in LC3II protein at 10 uM by Western blot analysis. Type of data set: functional, cell-based. As to conditions: time 3-24 hrs, TDE = time-dependent effect. (In general: Immunoblotting shows a protein as a band on a membrane.)
The nature of data set [14]: Half life in Balb/c mouse at 10 mg/kg, ip measured upto24 hrs by LC/MS/MS analysis. As to conditions: in vivo, time 24 hrs. The class given is ADME, organism-based.
Data set [15] relates to Mus musculus. Kind of data set: Protection against APAP-induced acute liver injury in ip dosed C57BL/6 mouse model assessed as tiny vacuoles in hepatocyte cytoplasm measured after 6 hrs by H and E staining method. The class given is functional, organism-based. Particulars: dose 10-40 mg/kg.
A short description of data set [16]: Clearance in Balb/c mouse at 10 mg/kg, iv measured upto24 hrs by LC/MS/MS analysis. As to conditions: in vivo, time 24 hrs. Type of data set: ADME, organism-based.
Data set [17] concerns the target Dual specificity protein kinase CLK1 (Mus musculus) (UniProt P22518). The data set is described as follows: Inhibition of Clk1 in mouse BNL CL.2 cells assessed as redistribution of serine/arginine (SR) proteins from nucleoplasmic (active form) to nuclear speckles (storage form) incubated for 24 hrs by immunofluorescence assay. The class given is cell-based. Particulars: dose 1-10 µM.

The nature of data set [18]: Half life in Balb/c mouse at 10 mg/kg, iv measured upto24 hrs by LC/MS/MS analysis. The class given is ADME, organism-based. Particulars: in vivo, time 24 hrs.
Data set [19] is described as follows: Half life in Balb/c mouse at 10 mg/kg, po measured upto24 hrs by LC/MS/MS analysis. The class given is ADME, organism-based. As to conditions: in vivo, time 24 hrs.
A short description of data set [20]: Clearance in Balb/c mouse at 10 mg/kg, po measured upto24 hrs by LC/MS/MS analysis. Type of data set: ADME, organism-based. Particulars: in vivo, time 24 hrs.
Data set [21] has as its system Mus musculus. The data set is described as follows: Protection against APAP-induced acute liver injury in ip dosed C57BL/6 mouse model assessed as volume of hepatocytes measured after 6 hrs by H and E staining method. Type of data set: functional, organism-based. Particulars: dose 10-40 mg/kg.
Data set [22] in a line: AUC (0 to t) in Balb/c mouse at 10 mg/kg, po measured upto24 hrs by LC/MS/MS analysis. The class given is ADME, organism-based. Set-up: dose 10 mg/kg, time 24 hrs, route po. Particulars: in vivo.
Data set [23] can be described thus: Clearance in Balb/c mouse at 10 mg/kg, ip measured upto24 hrs by LC/MS/MS analysis. Type of data set: ADME, organism-based. Particulars: in vivo, time 24 hrs.
The subject of data set [24] is HeLa. Kind of data set: Induction of autophagy in human HeLa cells assessed as ratio of LC3II protein to LC3I incubated for 24 hrs by Western blot analysis. Particulars: dose 0.2-10 nM. Type of data set: functional, cell-based.
Data set [25] addresses T1, Dual specificity protein kinase CLK1. The data set is described as follows: Binding affinity to Clk1 protein (unknown origin) assessed as inhibition of degradation in presence of 1:15 pronase to compound concentration.
Target sequence in this assay (P49759 whole entry, looked up): as the sequence (P49759 whole entry) above
The subject of data set [26] is Mus musculus. Kind of data set: Protection against APAP-induced acute liver injury in ip dosed C57BL/6 mouse model assessed as decrease in serum AST level measured after 6 hrs. The class given is functional, organism-based.
A short description of data set [27]: Oral bioavailability in Balb/c mouse at 10 mg/kg measured upto24 hrs by LC/MS/MS analysis. The class given is ADME, organism-based. Particulars: in vivo, time 24 hrs.
Data set [28] relates to Mus musculus. Kind of data set: Protection against APAP-induced acute liver injury in ip dosed C57BL/6 mouse model assessed as necrotic hepatocytes measured after 6 hrs by H and E staining method. Type of data set: functional, organism-based. Particulars: dose 10-40 mg/kg.
In data set [29] the test system is HeLa. Kind of data set: Induction of autophagy in human HeLa cells assessed as ratio of LC3II protein to LC3I at 10 uM by Western blot analysis. The class given is functional, cell-based. As to conditions: time 3-24 hrs, TDE = time-dependent effect.
Data set [30] can be described thus: AUC (0 to t) in Balb/c mouse at 10 mg/kg, ip measured upto24 hrs by LC/MS/MS analysis. Type of data set: ADME, organism-based. Also on record: time 24 hrs, dose 10 mg/kg, route ip. As to conditions: in vivo.
Data set [31] concerns HeLa. The data set is described as follows: Induction of autophagy in human HeLa cells assessed as degradation of SQSTM1/p62 at 10 uM incubated for 24 hrs by Western blot analysis. The class given is functional, cell-based.
Data set [32] deals with HeLa. The data set is described as follows: Induction of autophagy in human HeLa cells assessed as increase in LC3II protein incubated for 24 hrs by Western blot analysis. Particulars: dose 0.2-10 µM. Type of data set: functional, cell-based.
Data set [33] deals with Mus musculus. Kind of data set: Protection against APAP-induced acute liver injury in ip dosed C57BL/6 mouse model assessed as decrease in body temperature measured after 6 hrs by H and E staining method. As to conditions: dose 10-40 mg/kg. Type of data set: functional, organism-based.
Data set [34] has as its system Mus musculus. The data set is described as follows: Protection against APAP-induced acute liver injury in ip dosed C57BL/6 mouse model assessed as decrease in serum ALT level measured after 6 hrs. The class given is functional, organism-based. Particulars: dose 10-40 mg/kg.

Dual specificity protein kinase CLK1 (Mus musculus), sequence (P22518 whole entry, looked up): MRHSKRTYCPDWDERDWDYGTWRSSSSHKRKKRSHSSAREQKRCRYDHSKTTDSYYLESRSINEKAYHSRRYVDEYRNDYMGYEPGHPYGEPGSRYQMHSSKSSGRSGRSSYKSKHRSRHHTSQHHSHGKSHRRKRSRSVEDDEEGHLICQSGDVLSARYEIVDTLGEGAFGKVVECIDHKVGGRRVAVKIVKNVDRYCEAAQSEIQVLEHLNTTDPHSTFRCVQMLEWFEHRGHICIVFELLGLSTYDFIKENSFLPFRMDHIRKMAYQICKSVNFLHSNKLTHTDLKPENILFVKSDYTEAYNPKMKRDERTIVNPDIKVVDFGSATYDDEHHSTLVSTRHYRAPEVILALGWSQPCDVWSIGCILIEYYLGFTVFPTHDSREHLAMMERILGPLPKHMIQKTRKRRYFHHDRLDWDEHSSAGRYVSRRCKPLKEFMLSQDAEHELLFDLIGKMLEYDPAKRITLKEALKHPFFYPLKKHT

Turning to `Nc1ccc(-c2cnc3[nH]cc(-c4ccc(O)cc4)c3c2)cc1`, the Selectivity Index in the data set listed under Homo sapiens stood at 1.3. Besides, the inhibition result in data set [1] was “Active”. Besides, in [2], the IC50 is 34 nM.
For `COc1cc(Cl)ccc1C(=O)Nc1cnc2[nH]cc(-c3cncc(F)c3)c2c1`, in the data set filed under Homo sapiens, the Selectivity Index was determined as 60.5. In addition, the values for the IC50 in data set [3] and in data set [2] were 3990 nM and 66 nM, respectively. Also, the half-life at 10 µM in [4] is above 2 h. In addition, in data set [5], the CLH is below 12 mL/min/g. The Activity came to 92% in data set [6] and 20% in data set [7].
`COc1cncc(-c2c[nH]c3ncc(NC(=O)c4ccc(F)cc4)cc23)c1`: in the data set listed under Homo sapiens, the Selectivity Index is 85.8. Also, the IC50 in data set [3] is 2060 nM; in data set [2], 24 nM. Moreover, the half-life at 10 µM in data set [4] is 1.92 h. Moreover, the CLH in data set [5] turned out to be 13.8 mL/min/g. Besides, the Activity worked out at 81% in data set [6] and 13% in data set [7].
In the case of `CN1CCN(c2ccc(C(=O)Nc3cnc4[nH]cc(-c5cncc(F)c5)c4c3)cc2)CC1`, the Selectivity Index in the data set listed under Homo sapiens stood at 304. Also, the values for the Cmax in data set [8], in [9] and in data set [10] were 1460 ng/mL, 13200 ng/mL and 4650 ng/mL, respectively. For the same compound, the 50% inhibitory concentration (IC50) in data set [3] came out at 1520 nM; in data set [2] it was 5 nM. Besides, the AUC(0-t) at 24 h stood at 9520 ng·h/mL in data set [11], 1860 ng·h/mL in data set [22] and 5010 ng·h/mL in [30]. Besides, the outcome with HeLa [12] and in the data set with HeLa [31] was Active. The Activity entry was “Tde” in the data set on HeLa [13]; “Dose-Dependent Effect” in the data set on Mus musculus [15]; 72% in [6]; “Dose-Dependent Effect” with Mus musculus [21]; “Dose-Dependent Effect” in the data set on HeLa [24]; “Dose-Dependent Effect” in [25]. In addition, the Activity in [7] is 2%; with Mus musculus [26], “Dose-Dependent Effect”; in the data set with Mus musculus [28] it was “Dose-Dependent Effect”; in the data set on HeLa [29] it was “Tde”; with HeLa [32], “Dose-Dependent Effect”; in the data set on Mus musculus [33], “Dose-Dependent Effect”. In the data set with Mus musculus [34], the Activity entry is “Dose-Dependent Effect”. Also, the half-life in data set [14] was 3.27 h; in data set [18], 2.96 h; in data set [19], 5.29 h. Further, the half-life at 10 µM in data set [4] is above 2 h. In data set [16], this compound had a clearance of 17.5 mL/min/kg. Moreover, the inhibition entry in data set [17] was “Dose-Dependent Effect”. Besides, the CLH in [5] was below 12 mL/min/g. Further, the CL/F in data set [20] was 91.8 mL/min/kg; in [23], 59.7 mL/min/kg. Also, the bioavailability in data set [27] amounted to 19.5%.
For `CN1CCN(c2ccc(CNc3cnc4[nH]cc(-c5cncc(F)c5)c4c3)cc2)CC1`, the Selectivity Index in the data set listed under Homo sapiens was determined as 142. The half-inhibitory concentration (IC50) in [3] turned out to be 5970 nM; in data set [2] it was 42 nM. Further, in data set [4], the half-life at 10 µM was determined as 0.292 h. Further, the CLH in data set [5] is 79.2 mL/min/g. In addition, the Activity amounted to 99% in data set [6] and 19% in data set [7].
